For data set [1], the system named is Aphidius matricariae. The data set is described as follows: LR50; higher = less toxic. The settings on record: not reported; mortality.
In data set [2] the test system is Daphnia magna. The settings on record: chronic/long-term; duration: 21 days; reproduction.
The subject of data set [3] is Oncorhynchus mykiss. The settings on record: chronic/long-term; duration: 28 days; growth.
The test system of data set [4] is Apis mellifera. The settings on record: acute, mortality.
The subject of data set [5] is Colinus virginianus. As to conditions: reproduction developmental.
Data set [6] relates to Rattus norvegicus.
In data set [7] the test system is Canidae. The settings on record: oral, Dog Other.
The subject of data set [8] is Mus musculus. The settings on record: acute; oral; mortality.
Data set [9] relates to Bibionidae. The settings on record: chronic/long-term; duration: 21 days; other.
Data set [10] has as its system Lepomis macrochirus. The settings on record: acute; duration: 96 hours; mortality.
Data set [11] has as its system Tagia sp. The settings on record: acute; duration: 14 days; mortality.
In data set [12] the test system is Anas platyrhynchos. The settings on record: oral, mortality.
For data set [13], the system named is Aphidius matricariae. The settings on record: not reported; reproduction.

Converted amounts (≈) assume the structure as drawn.

Usually NOAEL stands for the highest tested level that showed no adverse finding.

In data set [1], `C[C@H]1[C@H](c2ccc(Cl)cc2)SC(=O)N1C(=O)NC1CCCCC1` [Hexythiazox] displayed an LR50 above 158 g/ha. The NOEC in data set [2] was found to be 0.0061 mg/L; in [3], 0.04 mg/L; in [5], 100 mg/kg-day; in [9], 1.7 mg/L. Moreover, the LD50 in data set [4] (dermal) is above 200 µg/piece; in [4] (duration: 48 hours, oral, unspecified), above 112 µg/piece; in [6] (acute, oral, mortality), above 5000 mg/kg; in [7] (acute, mortality), above 5000 mg/kg; in data set [8], above 5000 mg/kg; in data set [12] (acute, unspecified), above 2000 mg/kg. For the same molecule, the NOEL in data set [6] (chronic) was 23.5 mg/kg-day. For the same molecule, the NOAEL in [6] (chronic, duration: 2 years, clinical chemistry) was determined as 3.2 mg/kg-day; in [7] (chronic, duration: 1 years, histopathology: nonneoplastic) it was 2.87 mg/kg-day. Also, the LC50 was 3.2 µg/mL (≈ 9.07 µM) in [10]; above 105 mg/kg in data set [11]; above 523 mg/kg-day in data set [12] (short-term, feed). The same molecule gave an LEL in data set [13] of 158 g/ha.

These data come from EPA's ToxValDB 9.5 (doi:10.2903/j.efsa.2010.1722).
